{"source": "ChEMBL document CHEMBL1833882", "about": "“Preparation and antibacterial evaluation of decarboxylated fluoroquinolones” (2011)", "data": [{"tested_on": "Staphylococcus aureus", "assay": "Antibacterial activity against methicillin-resistant Staphylococcus aureus 1094 after 18 hrs by broth dilution method", "type": "functional", "conditions": "Staphylococcus aureus, 1094, 18 h", "units": {"MIC": "µg/mL"}, "values": [{"smiles": "CC1CN(c2c(F)cc3c(=O)c(C(=O)O)cn(C4CC4)c3c2F)CCN1", "note": "(stereo unspecified)", "MIC": 10}, {"smiles": "O=CN1CCN(c2cc3c(cc2F)c(=O)ccn3C2CC2)CC1", "MIC": "> 80"}]}, {"tested_on": "Pseudomonas aeruginosa", "assay": "Antibacterial activity against Pseudomonas aeruginosa PAO1 harboring oprM deltamexAB after 18 hrs by broth dilution method", "type": "functional", "conditions": "PAO1, 18 h", "units": {"MIC": "µg/mL"}, "values": [{"smiles": "CC1CN(c2c(F)cc3c(=O)c(C(=O)O)cn(C4CC4)c3c2F)CCN1", "note": "(stereo unspecified)", "MIC": 0.039}, {"smiles": "O=CN1CCN(c2cc3c(cc2F)c(=O)ccn3C2CC2)CC1", "MIC": "> 80"}]}, {"tested_on": "Pseudomonas aeruginosa", "assay": "Antibacterial activity against Pseudomonas aeruginosa PAO1 ATCC BAA-47 after 18 hrs by broth dilution method", "type": "functional", "conditions": "PAO1 ATCC BAA-47, 18 h", "units": {"MIC": "µg/mL"}, "values": [{"smiles": "CC1CN(c2c(F)cc3c(=O)c(C(=O)O)cn(C4CC4)c3c2F)CCN1", "note": "(stereo unspecified)", "MIC": 1.25}, {"smiles": "O=CN1CCN(c2cc3c(cc2F)c(=O)ccn3C2CC2)CC1", "MIC": "> 80"}]}, {"tested_on": "Escherichia coli", "assay": "Antibacterial activity against Escherichia coli 700 expressing TolC after 18 hrs by broth dilution method", "type": "functional", "conditions": "Escherichia coli, 700, 18 h", "units": {"MIC": "µg/mL"}, "values": [{"smiles": "CC1CN(c2c(F)cc3c(=O)c(C(=O)O)cn(C4CC4)c3c2F)CCN1", "note": "(stereo unspecified)", "MIC": "≤ 0.02"}, {"smiles": "O=CN1CCN(c2cc3c(cc2F)c(=O)ccn3C2CC2)CC1", "MIC": "> 80"}]}, {"tested_on": "Enterococcus faecalis", "assay": "Antibacterial activity against vancomycin-resistant Enterococcus faecalis ATCC 51575 after 18 hrs by broth dilution method", "type": "functional", "conditions": "ATCC 51575, 18 h", "units": {"MIC": "µg/mL"}, "values": [{"smiles": "CC1CN(c2c(F)cc3c(=O)c(C(=O)O)cn(C4CC4)c3c2F)CCN1", "note": "(stereo unspecified)", "MIC": 0.625}, {"smiles": "O=CN1CCN(c2cc3c(cc2F)c(=O)ccn3C2CC2)CC1", "MIC": "> 80"}]}, {"tested_on": "Escherichia coli", "assay": "Antibacterial activity against TolC deficient Escherichia coli 701 after 18 hrs by broth dilution method", "type": "functional", "conditions": "Escherichia coli, 701, 18 h", "units": {"MIC": "µg/mL"}, "values": [{"smiles": "CC1CN(c2c(F)cc3c(=O)c(C(=O)O)cn(C4CC4)c3c2F)CCN1", "note": "(stereo unspecified)", "MIC": "≤ 0.02"}, {"smiles": "O=CN1CCN(c2cc3c(cc2F)c(=O)ccn3C2CC2)CC1", "MIC": "> 80"}]}, {"tested_on": "Burkholderia cepacia", "assay": "Antibacterial activity against Burkholderia cepacia ATCC 39277 after 18 hrs by broth dilution method", "type": "functional", "conditions": "ATCC 39277, 18 h", "units": {"MIC": "µg/mL"}, "values": [{"smiles": "CC1CN(c2c(F)cc3c(=O)c(C(=O)O)cn(C4CC4)c3c2F)CCN1", "note": "(stereo unspecified)", "MIC": 0.078}, {"smiles": "O=CN1CCN(c2cc3c(cc2F)c(=O)ccn3C2CC2)CC1", "MIC": "> 80"}]}, {"tested_on": "Stenotrophomonas maltophilia", "assay": "Antibacterial activity against Stenotrophomonas maltophilia ATCC 13637 after 18 hrs by broth dilution method", "type": "functional", "conditions": "ATCC 13637, 18 h", "units": {"MIC": "µg/mL"}, "values": [{"smiles": "CC1CN(c2c(F)cc3c(=O)c(C(=O)O)cn(C4CC4)c3c2F)CCN1", "note": "(stereo unspecified)", "MIC": 0.039}, {"smiles": "O=CN1CCN(c2cc3c(cc2F)c(=O)ccn3C2CC2)CC1", "MIC": "> 80"}]}, {"tested_on": "Bacillus subtilis", "assay": "Antibacterial activity against Bacillus subtilis BD54 after 18 hrs by broth dilution method", "type": "functional", "conditions": "BD54, 18 h", "units": {"MIC": "µg/mL"}, "values": [{"smiles": "CC1CN(c2c(F)cc3c(=O)c(C(=O)O)cn(C4CC4)c3c2F)CCN1", "note": "(stereo unspecified)", "MIC": 0.078}, {"smiles": "O=CN1CCN(c2cc3c(cc2F)c(=O)ccn3C2CC2)CC1", "MIC": "> 80"}]}, {"tested_on": "Staphylococcus aureus", "assay": "Antibacterial activity against Staphylococcus aureus ATCC 25923 after 18 hrs by broth dilution method", "type": "functional", "conditions": "ATCC 25923, 18 h", "units": {"MIC": "µg/mL"}, "values": [{"smiles": "CC1CN(c2c(F)cc3c(=O)c(C(=O)O)cn(C4CC4)c3c2F)CCN1", "note": "(stereo unspecified)", "MIC": 0.235}, {"smiles": "O=CN1CCN(c2cc3c(cc2F)c(=O)ccn3C2CC2)CC1", "MIC": "> 80"}]}, {"tested_on": "Bacillus anthracis", "assay": "Antibacterial activity against Bacillus anthracis Sterne after 18 hrs by broth dilution method", "type": "functional", "conditions": "not given", "units": {"MIC": "µg/mL"}, "values": [{"smiles": "CC1CN(c2c(F)cc3c(=O)c(C(=O)O)cn(C4CC4)c3c2F)CCN1", "note": "(stereo unspecified)", "MIC": 0.078}, {"smiles": "O=CN1CCN(c2cc3c(cc2F)c(=O)ccn3C2CC2)CC1", "MIC": "> 80"}]}, {"tested_on": "Burkholderia cepacia", "assay": "Antibacterial activity against Burkholderia cepacia ATCC 55792 after 18 hrs by broth dilution method", "type": "functional", "conditions": "ATCC 55792, 18 h", "units": {"MIC": "µg/mL"}, "values": [{"smiles": "CC1CN(c2c(F)cc3c(=O)c(C(=O)O)cn(C4CC4)c3c2F)CCN1", "note": "(stereo unspecified)", "MIC": 0.235}, {"smiles": "O=CN1CCN(c2cc3c(cc2F)c(=O)ccn3C2CC2)CC1", "MIC": "> 80"}]}, {"tested_on": "Staphylococcus aureus", "assay": "Antibacterial activity against Staphylococcus aureus ATCC 25923 after 16 to 18 hrs by agar dilution method", "type": "functional", "conditions": "not given", "units": {"MIC": "µg/mL"}, "values": [{"smiles": "O=CN1CCN(c2cc3c(cc2F)c(=O)ccn3C2CC2)CC1", "MIC": "> 64"}]}, {"tested_on": "Enterococcus faecalis", "assay": "Antibacterial activity against Enterococcus faecalis ATCC 29212 after 16 to 18 hrs by agar dilution method", "type": "functional", "conditions": "not given", "units": {"MIC": "µg/mL"}, "values": [{"smiles": "O=CN1CCN(c2cc3c(cc2F)c(=O)ccn3C2CC2)CC1", "MIC": "> 64"}]}, {"tested_on": "Escherichia coli", "assay": "Antibacterial activity against Escherichia coli ATCC 29425 after 18 hrs by broth dilution method", "type": "functional", "conditions": "ATCC 29425, 18 h", "units": {"MIC": "µg/mL"}, "values": [{"smiles": "O=CN1CCN(c2cc3c(cc2F)c(=O)ccn3C2CC2)CC1", "MIC": "> 80"}]}, {"tested_on": "Escherichia coli", "assay": "Antibacterial activity against Escherichia coli ATCC 29425 after 16 to 18 hrs by agar dilution method", "type": "functional", "conditions": "not given", "units": {"MIC": "µg/mL"}, "values": [{"smiles": "O=CN1CCN(c2cc3c(cc2F)c(=O)ccn3C2CC2)CC1", "MIC": "> 64"}]}, {"tested_on": "Klebsiella pneumoniae", "assay": "Antibacterial activity against Klebsiella pneumoniae ATCC 700603 after 18 hrs by broth dilution method", "type": "functional", "conditions": "ATCC 700603, 18 h", "units": {"MIC": "µg/mL"}, "values": [{"smiles": "CC1CN(c2c(F)cc3c(=O)c(C(=O)O)cn(C4CC4)c3c2F)CCN1", "note": "(stereo unspecified)", "MIC": 0.313}, {"smiles": "O=CN1CCN(c2cc3c(cc2F)c(=O)ccn3C2CC2)CC1", "MIC": "> 80"}]}, {"tested_on": "Acinetobacter baumannii", "assay": "Antibacterial activity against Acinetobacter baumannii ATCC 19606 after 18 hrs by broth dilution method", "type": "functional", "conditions": "ATCC 19606 = CIP 70.34 = JCM 6841, 18 h", "units": {"MIC": "µg/mL"}, "values": [{"smiles": "CC1CN(c2c(F)cc3c(=O)c(C(=O)O)cn(C4CC4)c3c2F)CCN1", "note": "(stereo unspecified)", "MIC": 0.313}, {"smiles": "O=CN1CCN(c2cc3c(cc2F)c(=O)ccn3C2CC2)CC1", "MIC": "> 80"}]}, {"tested_on": "Enterococcus faecalis", "assay": "Antibacterial activity against Enterococcus faecalis ATCC 29212 after 18 hrs by broth dilution method", "type": "functional", "conditions": "ATCC 29212, 18 h", "units": {"MIC": "µg/mL"}, "values": [{"smiles": "CC1CN(c2c(F)cc3c(=O)c(C(=O)O)cn(C4CC4)c3c2F)CCN1", "note": "(stereo unspecified)", "MIC": 0.625}, {"smiles": "O=CN1CCN(c2cc3c(cc2F)c(=O)ccn3C2CC2)CC1", "MIC": "> 80"}]}, {"tested_on": "Klebsiella pneumoniae", "assay": "Antibacterial activity against Klebsiella pneumoniae ATCC 13882 after 18 hrs by broth dilution method", "type": "functional", "conditions": "ATCC 13882, 18 h", "units": {"MIC": "µg/mL"}, "values": [{"smiles": "CC1CN(c2c(F)cc3c(=O)c(C(=O)O)cn(C4CC4)c3c2F)CCN1", "note": "(stereo unspecified)", "MIC": "≤ 0.02"}, {"smiles": "O=CN1CCN(c2cc3c(cc2F)c(=O)ccn3C2CC2)CC1", "MIC": "> 80"}]}]}
